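Assay format: 96-well plates, 48-hour exposure. At the GI50, growth is halved. Definition used: TGI = concentration required for complete inhibition of growth.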
Test system: EKVX NSCLC
Test: growth of human tumour cells (NCI), 48 h

Row | Structure (SMILES) | GI50 | TGI
1 | Cc1nc(Nc2cccnc2)sc1C(=O)/C=C/c1ccc(F)cc1 | 5.15 µM | > 100 µM
2 | O=C(Nc1cccc(Cl)c1)C(=O)C(C(=O)c1ccc2ccccc2c1)C1OC(=O)c2ccccc21 (centres undefined) | – | > 100 µM
3 | O=c1c(F)cn(Cc2ccc(C34CC5CC(CC(C5)C3)C4)c(O)c2)c(=O)n1Cc1ccc(C23CC4CC(CC(C4)C2)C3)c(O)c1 | 15.8 µM | 34.8 µM
4 | COCC(OC)C(CC=C(C#N)C#N)OC (centres undefined) | – | > 100 µM
5 | N#Cc1nn(-c2cc(=O)[nH]c3ccc(Cl)cc23)c(N)c1C#N | 11.5 µM | > 100 µM
6 | On1c(-c2ccccc2)c(-c2ccccc2N2CCCC2)c2ccccc21 | – | > 100 µM
7 | COC(=O)c1c2c(c(C)[n+]([O-])c1C)C(=O)C=C(NCc1ccc(F)cc1)C2=O | 0.963 µM | 2.23 µM
8 | CC(C)C1=Cc2ccc3c(c2C(=O)C1=O)CCCC3(C)C | – | 28.6 µM
9 | Nc1ncn([C@@H]2O[C@H](CO)[C@@H](O)[C@H]2O)c(=O)n1 | 8.49 µM | > 100 µM
10 | CSc1nc(SC)c2c(C#N)[nH]nc2n1 | – | > 100 µM
11 | CC(=O)Nc1ccc(-c2csc(Nc3cccc(-c4csc(C)n4)c3)n2)cc1 | 4.99 µM | 22.2 µM
12 | COc1ccc(CCN(C)C2CCC(C#N)(c3ccc(OC)c(OC)c3)CC2)cc1OC (centres undefined) | – | > 100 µM
13 | C=CCC1(c2ccc(OC)cc2)C=CC(=O)CC1 (centres undefined) | – | > 100 µM
14 | CCOC(=O)c1nc2c(OC)nn(O)cc-2c1[N+](=O)[O-] | – | 36.4 µM
15 | C/C(CC(=O)Nc1ccc(C)c(C)c1)=N\N(c1ccccc1)c1ccccc1 | – | > 100 µM
16 | COC(=O)/C(=N\NC(N)=S)C(C(=O)OC)C(=O)C(=O)Nc1ccc(C)cc1 (centres undefined) | – | > 100 µM
17 | O=C(OC1CCC(=C2SCCCS2)[C@H]1C1SCCCS1)c1ccccc1 (some centres undefined) | – | > 100 µM
18 | O=C(/C(=C/c1ccc(Cl)cc1)c1ccccc1)c1ccccc1 | – | 72.4 µM
19 | c1ccc2c(OCCSCCCCCCCCCCSCCOc3cccc4ccccc34)cccc2c1 | – | > 100 µM
20 | CN1CCC(=O)/C(=C/c2ccccc2)C1 | – | 40.5 µM

Test system: HOP-62 NSCLC
Test: growth of human tumour cells (NCI), 48 h

Row | Structure (SMILES) | GI50 | TGI
21 | CC1(C)OC2C(CO[Si](C)(C)C(C)(C)C)OC(n3c(I)c(C#C[Si](C)(C)C)c(=O)[nH]c3=O)C2O1 (centres undefined) | > 100 µM | > 100 µM
22 | CN(C)CC[C@H](CSc1ccccc1)Nc1ccc(S(=O)(=O)NC(=O)c2ccc(N3CCN(Cc4ccccc4-c4ccc(Cl)cc4)CC3)cc2)cc1[N+](=O)[O-] | 9.66 µM | > 60.2 µM
23 | COc1ccc(-c2ccc(=O)oc2C#Cc2cc(OC)c(OC)c(OC)c2)cc1O | 1.65 µM | > 100 µM
24 | O=C(/C=C/c1ccc[nH]1)c1ccc(-n2ccc(C(F)(F)F)n2)cc1 | > 100 µM | > 100 µM
25 | O=C(c1ccco1)c1c(C(F)(F)F)nc2ccc(Cl)cc2[n+]1[O-] | > 100 µM | > 100 µM
26 | COc1ccc(-c2nnc3n(C)c(=O)c4ccccc4n23)cc1N | 0.0482 µM | > 100 µM
27 | CN(C)C1CCN(C(=O)c2ccc(NC(=O)Nc3ccc(-c4nc(N5CCOCC5)c5cccn5n4)cc3)cc2)CC1 | 0.0573 µM | 2.82 µM
28 | CCOC(=O)N[C@H]1CCc2cc(OC)c(OC)c(OC)c2-c2ccc(SC)c(=O)cc21 | – | > 100 µM
29 | Cc1nc(Nc2cccnc2)sc1C(=O)/C=C/c1ccc(F)cc1 | 2.61 µM | 7.6 µM
30 | N=c1c2c(-c3ccccc3)c(-c3ccccc3)n(Cc3ccccc3)c2ncn1C1CCC(O)CC1 (centres undefined) | 0.261 µM | 14.8 µM
31 | O=C(Nc1cccc(Cl)c1)C(=O)C(C(=O)c1ccc2ccccc2c1)C1OC(=O)c2ccccc21 (centres undefined) | – | 37.3 µM
32 | O=c1c(F)cn(Cc2ccc(C34CC5CC(CC(C5)C3)C4)c(O)c2)c(=O)n1Cc1ccc(C23CC4CC(CC(C4)C2)C3)c(O)c1 | 17.5 µM | 33.1 µM
33 | COCC(OC)C(CC=C(C#N)C#N)OC (centres undefined) | – | > 100 µM
34 | N#Cc1nn(-c2cc(=O)[nH]c3ccc(Cl)cc23)c(N)c1C#N | > 100 µM | > 100 µM
35 | On1c(-c2ccccc2)c(-c2ccccc2N2CCCC2)c2ccccc21 | – | > 100 µM
36 | CCN1CCN(c2cc(C)c3cc(NC(=O)c4ccc(OC)c(OC)c4)ccc3n2)CC1 | > 37 µM | > 57.7 µM
